Columns and labels:
[1] = test system: E. coli 683/17; assay: MIC for biofilm metabolic activity (MTT reduction assay); format: cell-based, Escherichia coli; conditions: for MICBM80: ≥80% inhibition, 24 h
Experimental: (§1) Ten concentrations of NAC, RLs, and UA were tested to determine the minimum inhibitory concentration for planktonic growth, and subsequently, the six highest concentrations were applied on preformed biofilms to evaluate the biofilm eradication ability of the compounds. MIC was defined as the lowest substance concentration able to inhibit at least 80% of microbial growth (MICPC80 for planktonic cells, MICBC80 for further growth of biofilm cells), inhibit 80% of metabolic activity (MICBM80 for biofilm metabolic activity, MICMPB80 for metabolic activity of preformed biofilm), prevent biofilm formation by at least 80% (MICBF80 for biofilm formation), or reduce a preformed biofilm by at least 80% (MICBR80 for biofilm reduction). The results of MICs are summarized in Table 1 (planktonic cells) and Table 2 (biofilm-associated cells).
(§2) The determination of MICs was performed according to Chlumsky et al.. Briefly, 96-well flat-bottomed microtiter plates were inoculated with 75 µL (for biofilm formation) or 100 µL (for preformed biofilm) of bacterial suspension (A625nm 0.08 to 0.1) in technical triplicates and were then carefully mixed with the dilution series of the test substances (24 h cultivation at 25 °C for S. Infantis, 37 °C for other strains) or were directly cultivated to preform biofilms (18 h). For a positive control of bacterial growth, the inoculum was mixed with a pure sterile medium. Furthermore, the sterile medium was included in the plate as a marker of potential microbial contamination. To evaluate planktonic cells growth (MICPC80) and further growth of biofilm cells (MICBC80), the optical density of the content of the microtiter plates was measured spectrophotometrically at 625 nm before and after 24 h (for biofilm formation) of cultivation or before and after additional 20 h incubation with the tested compound (for preformed biofilm). The difference of A625nm was considered as a measure of the ability of cells to grow in the presence of the tested substances. To evaluate the inhibition of biofilm formation (MICBF80) and reduction in preformed biofilms (MICBR80), biomass was quantified using crystal violet staining, and its metabolic activity (MICBM80 and MICMPB80) was estimated by using the MTT (thiazyl tetrazolium bromide, Sigma-Aldrich, USA) reduction assay, both measured spectrophotometrically at 595 nm.
(§3) All inhibitions were calculated using the formula of Chlumsky et al. below (Equation (1)):(1) A625(595)nm inhibition (%)=A625(595)nm (control) – A625(595)nm(natural substance)/A625(595)nm (control)× 100 where A625(595)nm (control) is the absorbance of bacterial suspension/biofilm itself, and A625(595)nm(natural substance) is the absorbance of the bacterial suspension/biofilm with the added natural substance (NAC, RLs, and UA).
(§4) When the minimum inhibitory concentration could not be determined, the MIC was established as >the highest tested concentration for NAC, RLs, and UA.

[2] = test system: E. coli 693/17; assay: as above; format: cell-based, Escherichia coli; conditions: for MICBM80: ≥80% inhibition, 24 h
Experimental: as §1, §2, §3, §4

[3] = test system: L. monocytogenes 164; assay: CLSM analysis, biofilm prevention; format: cell-based, Listeria monocytogenes; conditions: for Thickness (µm) MICBM80 / Thickness (µm) subCBM80: 24 h exposure; for Thickness (µm) MICBM80: substance at its MICBM80, mean ± SD; for Thickness (µm) subCBM80: substance at subinhibitory concentration, mean ± SD
Experimental: (§5) Biofilm prevention and removal analyses were performed using previously determined minimum inhibitory and subinhibitory concentrations for metabolic activity (MICBM80, subCBM80; MICMPB80, subCMPB80) of NAC, RLs, and UA specific for each tested strain. Selected concentrations were used to evaluate the inhibition of biofilm formation (biofilm prevention) and the reduction in previously formed biofilms (biofilm removal) for the same set of microorganisms, with the exception of S. Infantis, which was excluded from the analysis due to its inability to form biofilm in the selected microtiter plate. Biofilm prevention and removal were observed using CLSM with specific staining to distinguish between live and membrane-compromised cells. Images were analyzed to evaluate (i). the total volume of the biomass, (ii). ratios of live and membrane-compromised cells, and (iii). to calculate biofilm volume reduction for individual organisms after the respective treatment types. The total biofilm volume was normalized by the area of the well and expressed as an average biofilm thickness. Complete data are provided in Supplementary Materials (Tables S1–S8).
(§6) For both inhibition and reduction of biofilms, overnight cultures from BHI were diluted in TSB + 1% Glc to reach an absorbance of 0.08 to 0.1 at 625 nm. The inoculum (150 µL) was transferred into wells of the 96-well flat-bottomed Ibidiμ-Plate (Ibidi, Gräfelfing, Germany) and mixed with 150 µL of each of the three tested substances in technical quadruplicates, followed by incubation at 37 °C for 24 h. Simultaneously, the prepared bacterial suspensions were inoculated to an additional microtiter plate (200 µL) and allowed to form biofilm overnight (18 h at 37 °C). After the incubation, the content of the well was drained off, and 200 µL of each of the three tested substances was added to the plate, which was then incubated for an additional 20 h. The used concentrations of the substances represented the subinhibitory and minimum inhibitory concentrations for metabolic activity (subCBM80, MICBM80; subCMPB80, MICMPB80). Both setups contained a positive control of the bacterial growth (inoculum mixed with sterile TSB + 1% Glc medium) and a control monitoring microbial contamination (sterile medium). Non-treated wells were used as a positive control for comparison between non-treated and treated biofilm mass.
(§7) Prior to the imaging, the wells were stained with the LIVE/DEAD® BacLight™ Bacterial Viability Kit (Thermo Fisher Scientific, MA, USA) following the manufacturer’s guidelines and Drago et al.. Briefly, equal volumes of SYTO® 9 and propidium iodide were combined with the sterile distilled water to reach a final concentration of […]. The biofilm mass was stained using 300 µL of the staining solution per well followed by incubation at 37 °C in the dark for 15 min. Stained wells were washed once with sterile distilled water, which was then added to each well (300 µL). Images were acquired with an inverted Leica SP5 CLSM using a 1.25× dry objective (WD 3.7 mm, Z-resolution 27 µm, up to 24 Z-stacks per well) to visualize an entire well. Samples were kept at the cultivation conditions (37 °C, 5% CO2, 90% humidity) with an OkoLabs stage top environmental chamber (Oko Labs, PA, USA). Fluorophore excitation lasers and emission bandwidths were as follows: SYTO® 9 (ex/em 485/498 nm) 488 nm excitation, 495 to 550 nm emission collection; propidium iodide (ex/em 535/617 nm) 561 nm excitation, 595 to 650 nm emission collection. The laser beam scanned the visual field at a frequency of 600 Hz. The wells were captured in snapshots of 1024 × 1024 pixels representing the area of 153.76 mm^2.
(§8) All collected images were statistically evaluated to quantify biovolume utilizing the surface estimation procedure described in Parker et al.. […]

[4] = test system: E. coli 683/17; assay: CLSM analysis, biofilm prevention; format: cell-based, Escherichia coli; conditions: 24 h exposure; for Thickness (µm) subCBM80: substance at subinhibitory concentration, mean ± SD
Experimental: as §5, §6, §7, §8

[5] = test system: E. coli 693/17; assay: CLSM analysis, biofilm prevention; format: cell-based, Escherichia coli; conditions: 24 h exposure; for Thickness (µm) subCBM80: substance at subinhibitory concentration, mean ± SD
Experimental: as §5, §6, §7, §8

[6] = substance at its MICBM80, mean ± SD

| Structure (SMILES) | maximal achieved inhibition (MICBM80 not reached) ([1]; within tested concentrations) [%] | MICBM80 [1] [µg/mL] | maximal achieved inhibition (MICBM80 not reached) ([2]; within tested concentrations) [%] | MICBM80 [2] [µg/mL] | Thickness (µm) MICBM80 [3] [µm] | Thickness (µm) subCBM80 [3] [µm] | Thickness (µm) subCBM80 [4] [µm] | Thickness (µm) subCBM80 [5] [µm] | proportion of membrane-compromised cells, increase ([3]; 24 h, MIC) | Thickness (µm) MICBM80 [4, 6] [µm] | Thickness (µm) MICBM80 [5, 6] [µm] |
| --- | --- | --- | --- | --- | --- | --- | --- | --- | --- | --- | --- |
| CC(=O)c1c(O)c(C)c(O)c2c1OC1=CC(=O)C(C(C)=O)C(=O)C12C (single isomer, unassigned; (+)) [UA, (+)-usnic acid] | 27 | > 31.3 | 16 | > 31.3 | 325 ± 70.5 | 417 ± 40.4 | 269 ± 28.1 | 256 ± 12.6 |  |  |  |
| CC(=O)N[C@@H](CS)C(=O)O [NAC, N-Acetyl-L-cysteine] |  | 6250 |  | 6250 | 158 ± 93.2 | 288 ± 40.6 | 229 ± 9.9 | 181 ± 21.9 | about 45% | 271 ± 50.7 | 273 ± 40.8 |

From paper PMC8583417, “Evaluation of the Antimicrobial Efficacy of N-Acetyl-L-Cysteine, Rhamnolipids, and Usnic Acid—Novel Approaches to Fight Food-Borne Pathogens” (International Journal of Molecular Sciences, 2021)
